# Laboratory results taken from PMC10768243 (Microbial Cell Factories, 2024).
# Target: topoisomerase II
# Experiment: topoisomerase II activity inhibition assay (isoform not given)
# Format: biochemical
smiles,measurement,value
CC[C@@]1(O)C(=O)OCc2c1cc1n(c2=O)Cc2cc3ccccc3nc2-1 [camptothecin],IC50,0.52 nM
